Measurements from US8163909B2, “Substituted hydroxyethyl amine compounds as beta-secretase modulators and methods of use” (Amgen Inc., priority 2007, dated 2012).
Where two headings read alike, the source gives them in different places.

Assays:
[1] = Microsomal stability assay, human liver microsomes;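 also: pooled human liver microsomes at 0.25 mg/mL with 1 µM compound and NADPH at 37 °C, pH 7.4, for 30 min, unchanged parent quantified by LC-MS/MS against the 0 min sample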
CYP3A4 (CYP3A) = CYP3A4 (CYP3A) (Homo sapiens, UniProt P08684); test: in vitro; conditions: microsomes, pH 7.4;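 also: inhibition of CYP3A-mediated 1-hydroxymidazolam formation after 10 min incubation with NADPH, quantified by HPLC MS relative to metabolite produced without test compound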
CYP2D6 = CYP2D6 (Homo sapiens, UniProt P10635); test: CYP2D6 inhibition assay (bufuralol, pooled human liver microsomes)
[2] = biological target: Beta Secretase enzyme (BACE) (Homo sapiens, UniProt P56817); test: In vitro enzymatic BACE FRET (fluorescence resonance energy transfer) assay; type: biochemical;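 also: fluorescence read after 1 h with 50 nM quenched peptide substrate spanning the BACE cleavage site, in pH 4.2 acetate buffer containing 10% DMSO and nonionic detergent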
[3] = Microsomal stability assay, rat liver microsomes;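 also: rat liver microsomes (0.25 mg/mL) with about 1 µM compound plus 1 mM NADPH, pH 7.4, 37 °C for 30 min, parent left measured by LC-MS/MS against 0 min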
[4] = tested on: Aβ40 in conditioned medium of cells stably expressing Amyloid Precursor Protein (APP); test: In vitro BACE cell-based assay (Aβ40 in conditioned medium, sandwich ELISA); conditions: Homo sapiens;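 also: compounds added as a dilution series, secreted peptide quantified by europium time-resolved fluorescence readout, potency fitted from percent of control versus compound concentration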
[5] = 2D6 IC50 (uM), CYP enzyme inhibition
[6] = BACE enzyme assay, read-out: BACE1 FRET assay
[7] = HEK293, HEK cells, read-out: HEK cell assay
[8] = read-out: BACE1 FRET assay (IC50)
[9] = HEK293, HEK cells, read-out: HEK cell assay (IC50)
[10] = 2D6 IC50, CYP enzyme inhibition
[11] = Table 2, read-out: BACE1 FRET assay
[12] = HEK293, Table 2, HEK cells, read-out: HEK cell assay
[13] = HEK293, HEK cell-based assay, IC50's in uM, read-out: HEK cell assay
[14] = BACE enzyme assay, IC50's in uM, read-out: BACE1 FRET assay
[15] = HEK293, cell-based assay, HEK cells, IC50's in uM, read-out: HEK cell assay

Chain of Beta Secretase enzyme (BACE) (P56817 46-501): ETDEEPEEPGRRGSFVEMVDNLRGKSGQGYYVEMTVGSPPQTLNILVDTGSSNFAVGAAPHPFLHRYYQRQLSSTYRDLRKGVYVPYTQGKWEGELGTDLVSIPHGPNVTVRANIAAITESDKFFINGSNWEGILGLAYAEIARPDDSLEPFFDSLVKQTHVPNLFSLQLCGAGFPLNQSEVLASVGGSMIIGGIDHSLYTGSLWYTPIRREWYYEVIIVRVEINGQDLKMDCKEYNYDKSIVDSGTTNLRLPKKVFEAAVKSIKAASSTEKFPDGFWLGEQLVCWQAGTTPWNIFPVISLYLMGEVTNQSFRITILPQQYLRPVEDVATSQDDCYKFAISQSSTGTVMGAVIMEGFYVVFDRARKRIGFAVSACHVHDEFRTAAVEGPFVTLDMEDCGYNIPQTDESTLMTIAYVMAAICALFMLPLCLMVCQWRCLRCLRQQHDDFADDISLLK
Chain of CYP2D6 (P10635 whole entry): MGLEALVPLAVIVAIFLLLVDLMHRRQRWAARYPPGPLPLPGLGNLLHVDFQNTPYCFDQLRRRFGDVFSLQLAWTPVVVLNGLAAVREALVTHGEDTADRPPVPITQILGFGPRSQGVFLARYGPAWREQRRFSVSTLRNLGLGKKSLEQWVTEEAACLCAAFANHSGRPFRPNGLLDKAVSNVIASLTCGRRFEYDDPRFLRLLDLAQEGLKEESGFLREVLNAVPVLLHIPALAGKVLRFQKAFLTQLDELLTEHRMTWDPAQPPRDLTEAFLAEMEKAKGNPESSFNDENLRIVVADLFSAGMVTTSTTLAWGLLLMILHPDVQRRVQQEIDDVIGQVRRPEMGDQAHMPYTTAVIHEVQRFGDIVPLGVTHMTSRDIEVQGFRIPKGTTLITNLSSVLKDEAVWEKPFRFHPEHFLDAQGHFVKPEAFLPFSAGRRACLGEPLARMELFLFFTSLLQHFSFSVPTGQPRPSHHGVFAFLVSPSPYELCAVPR
Chain of CYP3A4 (CYP3A) (P08684 2-503): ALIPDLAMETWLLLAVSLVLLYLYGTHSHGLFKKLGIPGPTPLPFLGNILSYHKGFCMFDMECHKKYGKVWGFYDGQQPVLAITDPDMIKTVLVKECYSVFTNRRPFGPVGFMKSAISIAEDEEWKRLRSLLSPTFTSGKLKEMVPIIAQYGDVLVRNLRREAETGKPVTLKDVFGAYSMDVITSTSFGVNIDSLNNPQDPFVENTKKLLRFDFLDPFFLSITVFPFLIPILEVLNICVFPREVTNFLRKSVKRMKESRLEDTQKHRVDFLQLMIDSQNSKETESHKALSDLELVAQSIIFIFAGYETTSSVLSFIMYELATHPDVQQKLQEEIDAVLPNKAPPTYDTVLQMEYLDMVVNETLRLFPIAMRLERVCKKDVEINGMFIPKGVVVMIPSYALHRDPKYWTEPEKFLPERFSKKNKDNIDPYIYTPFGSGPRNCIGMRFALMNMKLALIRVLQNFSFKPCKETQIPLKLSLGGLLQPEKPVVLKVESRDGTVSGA

| SMILES | HLM ([1]; human liver microsomal data) | IC50 (CYP3A4 (CYP3A)) | RLM ([3]; rat liver microsomal data) | IC50 (CYP2D6; [10]) | also measured |
| --- | --- | --- | --- | --- | --- |
| CC(=O)N[C@@H](Cc1ccc(F)cc1)[C@H](O)CN[C@H]1CC2(CCC2)Oc2c1cc(CC(C)(C)C)nc2N1CCOCC1 [Example 421, N-((2S,3R)-4-((S)-2,2-spirocyclobutyl-8-morpholino-6-neopentyl-3,4-dihydro-2H-pyrano[2,3-c]pyridin-4-ylamino)-1-(4-fluorophenyl)-3-hydroxybutan-2-yl)acetamide] | 211 µL/min/mg | 1300 nM | 151 µL/min/mg | – | IC50 (CYP2D6; [5]): 3.6 µM; IC50 [2, 6]: 0.134 µM; IC50 [4, 7]: 0.054 µM |
| COCC(=O)N[C@@H](Cc1cccc(F)c1)[C@H](O)CN[C@H]1CC2(CCC2)Oc2c1cc(CC(C)(C)OC)cc2-n1ccnc1.O=C(O)C(F)(F)F [Example 423] | – | 100 nM | – | – | HLM ([1]; human liver microsomes): 35 µL/min/mg; IC50 (CYP2D6; 2D6 IC50, CYP2D6 inhibition): 0.3 µM; IC50 [2, 8]: 0.579 µM; RLM ([3]; rat liver microsomes): 132 µL/min/mg; IC50 [4, 9]: 0.063 µM |
| COCC(=O)N[C@@H](Cc1ccc2c(c1)OCO2)[C@@H](CN[C@H]1CC2(CCC2)Oc2ncc([C@H](F)C(C)(C)C)cc21)OC [compound 447] | – | 14000 nM | – | 14 µM | IC50 [2, 11]: 2.64 µM; IC50 [4, 12]: 3.99 µM |
| COCC(=O)N[C@@H](Cc1ccc(F)cc1)[C@H](O)CN[C@H]1CC2(CCC2)Oc2c1cc(CC(C)(C)C)nc2-n1ccnc1 [compound 448] | – | 100 nM | 79 µL/min/mg | 1.8 µM | IC50 [2, 11]: 0.106 µM; IC50 [4, 12]: 0.153 µM |
| COCC(=O)N[C@@H](Cc1ccc(F)cc1)[C@H](O)CN[C@@H]1CC2(CCC2)Oc2c1cc(CC(C)(C)C)nc2-n1ccnc1 [compound 449] | – | 100 nM | 163 µL/min/mg | 0.8 µM | IC50 [2, 11]: 2.9 µM; IC50 [4, 12]: 2.97 µM |
| CC(C)(C)Cc1cnc2c(c1)[C@@H](NC[C@@H](O)[C@H](Cc1cccc(C#N)c1)NC(=O)c1ncccc1F)CC1(CC(F)(F)C1)O2 [compound 473] | – | 600 nM | 775 µL/min/mg | 2.4 µM | IC50 [2, 11]: 0.009 µM; IC50 [4, 12]: 0.063 µM |
| COCC(=O)N[C@@H](Cc1cccc(F)c1)[C@H](O)CN[C@H]1CC2(CCC2)Oc2c(-c3ccncc3)cc(CC(C)(C)Cl)cc21 [compound 536] | – | ≥ 27000 nM | – | – | IC50 (CYP2D6; [5]): ≥ 27 µM; IC50 [2, 6]: 0.019 µM; IC50 [4, 7]: 0.011 µM |
| COC(OC)C(=O)N[C@@H](Cc1ccc(F)cc1)[C@H](O)CN[C@H]1CC2(CCC2)Oc2ncc(CC(C)(C)C)cc21 [compound 591] | – | 600 nM | – | – | IC50 (CYP2D6; 2D6 IC50, CYP2D6 inhibition): 10.3 µM; IC50 [2, 8]: 0.01 µM; RLM ([3]; rat liver microsomes): 375 µL/min/mg; IC50 [4, 9]: 0.018 µM |
| CC(=O)N[C@@H](Cc1cc(F)cc(F)c1)[C@H](O)CN[C@H]1CC2(CCC2)Oc2c1cc(CC(C)(C)C)nc2Nc1ccccc1 [compound 598] | – | 6900 nM | – | – | IC50 (CYP2D6; 2D6 IC50, CYP2D6 inhibition): ≥ 27 µM; IC50 [2, 8]: 0.023 µM; RLM ([3]; rat liver microsomes): 102 µL/min/mg; IC50 [4, 9]: 0.26 µM |
| COCC(=O)N[C@@H](Cc1ccc(F)cc1)[C@H](O)CN[C@H]1CC2(CCNC2)Oc2cnc(CC(C)(C)C)cc21 (some centres unmarked) [compound 696] | – | 2900 nM | – | – | HLM ([1]; human liver microsomes): 32 µL/min/mg; IC50 (CYP2D6; 2D6 IC50 (uM), CYP2D6 inhibition): ≥ 27 µM; RLM ([3]; rat liver microsomes): 44 µL/min/mg; IC50 ([4]; HEK293, HEK cell-based assay IC50, read-out: HEK cell assay): 0.778 µM |
| CC(C)Cc1cnc2c(c1)[C@@H](NC[C@H](O)[C@@H](Cc1cccc(-c3nccs3)c1)NC(=O)[C@@H]1CCCO1)CC1(CCC1)O2 [compound 796] | 126 µL/min/mg | 200 nM | 58 µL/min/mg | – | IC50 (CYP2D6; [5]): 0.6 µM; IC50 [4, 13]: 0.663 µM |
| CCCc1cnc2c(c1)[C@@H](NC[C@H](O)[C@@H](Cc1cc(F)cc(-c3nccs3)c1)NC(=O)[C@@H](C)OC)CC1(CCC1)O2 [compound 815] | 204 µL/min/mg | 200 nM | 276 µL/min/mg | – | IC50 (CYP2D6; [5]): 0.6 µM |
| CO[C@H](C)C(=O)N[C@H](Cc1cc(F)cc(-c2nccs2)c1)[C@@H](O)CN[C@H]1CC2(CCC2)Oc2ncc(Br)cc21 [compound 821] | 162 µL/min/mg | 300 nM | 243 µL/min/mg | – | IC50 (CYP2D6; [5]): 0.5 µM; IC50 [4, 13]: 0.558 µM |
| CCCc1cnc2c(c1)[C@@H](NC[C@H](O)[C@@H](Cc1cc(F)cc(-c3nccs3)c1)NC(=O)COC)CC1(CCC1)O2 [compound 833] | 219 µL/min/mg | 300 nM | 189 µL/min/mg | – | IC50 (CYP2D6; [5]): 0.9 µM; IC50 [4, 13]: 2.28 µM |
| COCC(=O)N[C@@H](Cc1cccc(C(C)=O)c1)[C@H](O)CN[C@H]1CC2(CCC2)Oc2ncc(CC(C)(C)C)cc21 [compound 872] | 382 µL/min/mg | – | 278 µL/min/mg | 5.7 µM | IC50 [2, 14]: 0.007 µM; IC50 [4, 15]: 0.009 µM |
| CC(C)(C)Cc1cnc2c(c1)[C@@H](NC[C@@H](O)[C@H](Cc1ccc3c(c1)OCO3)NC(=O)C(C)(C)C)CC1(CCC1)O2 [compound 882] | 40 µL/min/mg | – | 103 µL/min/mg | 0.5 µM | IC50 [2, 14]: 6.25 µM; IC50 [4, 15]: 2.58 µM |
| C#Cc1ccc(C[C@H](NC(=O)[C@@H](C)OC)[C@H](O)CN[C@H]2CC3(CCC3)Oc3ncc(CC(C)(C)C)cc32)cc1 [compound 884] | – | 100 nM | 55 µL/min/mg | 3.8 µM | IC50 [2, 14]: 0.251 µM; IC50 [4, 15]: 0.097 µM |
| CCO[C@@H](C)C(=O)N[C@@H](Cc1ccc2c(c1)OCO2)[C@H](O)CN[C@H]1CC2(CCC2)Oc2ncc(CC(C)(C)C)cc21 [compound 888] | 29 µL/min/mg | – | 140 µL/min/mg | 3.4 µM | IC50 [2, 14]: 0.213 µM; IC50 [4, 15]: 1.55 µM |
| C#Cc1cccc(C[C@H](NC(=O)[C@H]2CCCO2)[C@H](O)CN[C@H]2CC3(CCC3)Oc3ncc(CC(C)(C)C)cc32)c1 [compound 896] | 45 µL/min/mg | – | 73 µL/min/mg | 3.8 µM | IC50 [2, 14]: 0.006 µM; IC50 [4, 15]: 0.009 µM |
| CO[C@H](C)C(=O)N[C@@H](Cc1cccc(-c2nccs2)c1)[C@H](O)CN[C@H]1CC2(CCC2)Oc2ncc([C@@H]3CC3(C)C)cc21 [compound 905] | 60 µL/min/mg | 200 nM | 71 µL/min/mg | 0.9 µM | – |
| CC1(C)C[C@H]1c1cnc2c(c1)[C@@H](NC[C@@H](O)[C@H](Cc1cccc(-c3nccs3)c1)NC(=O)[C@H]1CCCO1)CC1(CCC1)O2 [compound 906] | 94 µL/min/mg | 100 nM | 63 µL/min/mg | 0.4 µM | – |
| CC1(C)C[C@H]1c1cnc2c(c1)[C@@H](NC[C@@H](O)[C@H](Cc1cccc(-c3nccs3)c1)NC(=O)[C@@H]1CCCO1)CC1(CCC1)O2 [compound 907] | 77 µL/min/mg | 100 nM | 78 µL/min/mg | 0.5 µM | – |
| C#Cc1cccc(C[C@H](NC(=O)[C@@H](C)OC)[C@H](O)CN[C@H]2CC3(CCC3)Oc3ncc(CC(C)(C)C)cc32)c1F [compound 912] | 35 µL/min/mg | – | 60 µL/min/mg | 6.3 µM | IC50 [2, 14]: 0.013 µM; IC50 [4, 15]: 1.19 µM |
| C#Cc1cccc(C[C@H](NC(=O)[C@@H]2CCCO2)[C@H](O)CN[C@H]2CC3(CCC3)Oc3ncc(CC(C)(C)C)cc32)c1F [compound 913] | 41 µL/min/mg | – | 76 µL/min/mg | 7.1 µM | IC50 [2, 14]: 0.021 µM; IC50 [4, 15]: 0.063 µM |
